Results on one molecule are retold here after US8828988B2 (Tetraphase Pharmaceuticals, Inc., priority 2009, dated 2014).

The test system of assay [1] is Staphylococcus aureus SA158, tetracycline-resistant tet(K). Description: MIC assay, SA158. The format is cell-based.
Assay [2] deals with H. influenzae isolates (Eurofins-Medinet, recent clinical isolates). Description: MIC50 and MIC90 analysis (Example 22).
Protocol: Frozen bacterial strains were thawed and subcultured onto Mueller Hinton Broth (MHB) or other appropriate media (Streptococcus requires blood and Haemophilus requires hemin and NAD). Following incubation overnight, the strains were subcultured onto Mueller Hinton Agar and again incubated overnight. […] Isolated colonies were selected to prepare a starting inoculum equivalent to a 0.5 McFarland standard. […] Antibiotics (stored frozen, thawed and used within 3 hours of thawing) and compounds were further diluted to the desired working concentrations.
The assays were run as follows. Fifty μL of MHB was added to wells 2-12 of a 96-well plate. One hundred μL of appropriately diluted antibiotic or compound was added to well 1. Fifty μL of antibiotics or compound was removed from well 1 and added to well 2 and the contents of well 2 mixed by pipetting up and down five times. Fifty μL of the mixture in well 2 was removed and added to well 3 and mixed as above. Serial dilutions were continued in the same manner through well 12. Fifty μL was removed from well 12 so that all contained 50 μL. Fifty μL of the working inoculum was then added to all test wells. A growth control well was prepared by adding 50 μL of working inoculum and 50 μL of MHB to an empty well. The plates were then incubated at 37° C. overnight, removed from the incubator and each well was read on a plate reading mirror. The lowest concentration (MIC) of test compound that inhibited the growth of the bacteria was recorded.
MIC, MIC50 and MIC90 values were determined according to CLSI methodology. S. pneumoniae and H. influenzae isolates were obtained from Eurofins-Medinet and are recent clinical isolates. S. aureus strains were collected from various geographical sources.
Assay [3] concerns Staphylococcus aureus SA100, ATCC 13709, MSSA, Smith strain. Description: MIC assay, SA100. The format is cell-based.
Assay [4] relates to E. coli S30 extract system, coupled in vitro transcription/translation, firefly luciferase readout. Description: In vitro transcription/translation (TnT) assay. The format is biochemical. The following applies: Table 8.
The test system of assay [5] is Klebsiella pneumoniae KP153, tetracycline-resistant, tet(A), MDR, ESBL+. Kind of assay: MIC assay, KP153. In kind it is cell-based. The settings on record: Table 9, read-out: MIC Klebsiella pneum KP153 (tet)A.
Assay [6] concerns Escherichia coli EC155, tetracycline-resistant, tet(A). Description: MIC assay, EC155. The format is cell-based.
In assay [7] the test system is Enterobacter cloacae EC108, ATCC 13047. Kind of assay: MIC assay, EC108. In kind it is cell-based. The following applies: ATCC13047, Table 9, read-out: MIC Enterobacter cloaceae ATCC 13047.

For orientation: MIC means the lowest concentration found to suppress growth.

Values after ≈ are worked out from the molar mass of the structure shown. Read-outs that look alike come from different tables or passages of the source.

Turning to `CN(C)CC(C)(C)CNc1nc(Cl)c2c(c1O)C(=O)C1=C(O)[C@]3(O)C(=O)C(C(N)=O)=C(O)[C@@H](N(C)C)[C@@H]3C[C@@H]1C2` [Compound 151], the MIC in assay [1] (Table 8, read-out: MIC S. aureus tetK) stood at 0.13 µg/mL (≈ 0.225 µM); in assay [1] (Table 9, read-out: MIC S. aureus SA158 (tet)K) it was 0.125 µg/mL (≈ 0.216 µM); in assay [3] (Table 9, read-out: MIC S. aureus ATCC 13709), 0.5 µg/mL (≈ 0.865 µM); in assay [3] (Table 12, read-out: MIC S. aureus ATCC 13709) it was 0.5 µg/mL (≈ 0.865 µM); in assay [5], 8 µg/mL (≈ 13.8 µM); in assay [6] (Table 8, read-out: MIC E. coli tetA), 8 µg/mL (≈ 13.8 µM). Also, the minimal inhibitory concentration (MIC) in assay [6] (Table 9, read-out: MIC E. coli EC155 (tet)A) is 8 µg/mL (≈ 13.8 µM); in assay [7], 2 µg/mL (≈ 3.46 µM). In assay [2] (H. influenzae (n = 12)), this molecule had an MIC Range of 0.25 to 2 µg/mL. This molecule displayed an MIC50 in assay [2] (Haemophilus influenzae) of 1 µg/mL (≈ 1.73 µM). In assay [2] (Haemophilus influenzae), this molecule gave an MIC90 of 1 µg/mL (≈ 1.73 µM). Besides, in assay [4], the “E. coli TnT” value stood at 0.7 µg/mL.
